target: T1, rat NaP2b (SLC34A2) (Rattus norvegicus, UniProt Q9JJ09); assay: NaP2b-mediated Pi transport: 33P phosphate uptake into transfected HEK293 cells; assay type: cell-based; details: 100 uM KH2PO4, PiT-silencing agent, read-out: pIC50 range for rat Nap2b (converted)
T1 construct: host or cells: HEK293
T1 sequence (Q9JJ09 1-695): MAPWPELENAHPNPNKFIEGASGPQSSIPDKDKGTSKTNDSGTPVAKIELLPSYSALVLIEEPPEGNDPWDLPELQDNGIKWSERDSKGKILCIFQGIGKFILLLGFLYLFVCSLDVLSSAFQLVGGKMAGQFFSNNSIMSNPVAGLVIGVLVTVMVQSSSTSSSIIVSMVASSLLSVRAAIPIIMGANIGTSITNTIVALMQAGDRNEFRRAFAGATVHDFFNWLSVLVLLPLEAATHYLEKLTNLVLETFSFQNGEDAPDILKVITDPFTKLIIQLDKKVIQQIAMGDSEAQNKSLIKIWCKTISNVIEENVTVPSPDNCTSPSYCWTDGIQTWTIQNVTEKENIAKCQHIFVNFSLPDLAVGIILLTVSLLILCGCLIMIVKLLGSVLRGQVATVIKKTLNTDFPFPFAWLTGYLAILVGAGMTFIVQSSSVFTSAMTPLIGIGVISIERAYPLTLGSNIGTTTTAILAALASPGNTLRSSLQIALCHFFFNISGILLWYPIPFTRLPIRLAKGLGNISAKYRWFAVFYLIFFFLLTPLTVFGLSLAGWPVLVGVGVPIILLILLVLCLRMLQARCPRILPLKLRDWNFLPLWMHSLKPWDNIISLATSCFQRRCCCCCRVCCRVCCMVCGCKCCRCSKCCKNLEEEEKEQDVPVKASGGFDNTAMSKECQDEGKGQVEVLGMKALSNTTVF
Method: Materials. HEK293 cells were obtained from the American Type Culture collection and propagated per their instructions. Expression clones for rat and human NaP2b (SLC34A2) were obtained from Open Biosystems (Catalog numbers MRN1768-9510282, and MHS1010-99823026, respectively). The sequence of the human protein was mutated to insert a threonine after residue 37, and to introduce a N39D mutation.
Inhibition of Pi Transport. The rate of phosphate (Pi) uptake into HEK293 cells was measured using a modification of the method described by Mohrmann et al. (Mohrmann, I., Mohrmann, M., Biber, J., and Murer, H. (1986) Am. J. Phys. 250(3 Pt 1):G323-30.) Transfected HEK293 cells were treated with a pharmacological agent to minimize endogenous PiT-mediated phosphate transport activity, such that the only remaining sodium-dependent phosphate transport activity is that which was bestowed by introduction of the NaP2b genes.
Cells were seeded into 96-well plates at 25,000 cells/well and cultured overnight. Lipofectamine 2000 (Invitrogen) was used to introduce the NaP2b cDNA, and the cells were allowed to approach confluence during a second overnight incubation. […] Cells were then overlayed with either choline uptake buffer or sodium uptake buffer (14 mM Tris, 137 mM sodium chloride, 5.4 mM KCl, 2.8 mM CaCl2, 1.2 mM MgSO4, 100 uM KH2PO4, PiT-silencing agent, 1 mg/mL Bovine Serum Albumin, pH 7.4) containing 6-9 uCi/mL ^33P orthophosphoric acid (Perkin Elmer) and test compound. Each compound was tested at twelve concentrations ranging from 0.1 nM to 30 uM. Assays were run in duplicate.
After incubation for 3-30 minutes at room temperature, assay mixtures were removed, and the cells were washed twice with ice cold stop solution (137 mM sodium chloride, 14 mM Tris, pH 7.4). Cells were lysed by addition of 20 μL 0.1% Tween 80 followed by 100 μL scintillation fluid, and counted using a TopCount (Perkin Elmer).
pIC50 (the negative log of the IC50) values of the test compounds were calculated using GraphPad Prism.

SMILES | IC50
CN(CCN1CCOCC1)C(=O)c1cccc(C(=O)Nc2ccc(N3CCCCC3)cc2C(=O)Nc2ncn(-c3cccc(C(F)(F)F)c3)n2)c1 [Example 2, N1-Methyl-N1-(2-morpholinoethyl)-N3-(4-(piperidin-1-yl)-2-((1-(3-(trifluoromethyl)phenyl)-1H-1,2,4-triazol-3-yl)carbamoyl)phenyl)isophthalamide] | 1 to 7.94 µM
CN(CCN1CCOCC1)C(=O)c1cccc(C(=O)Nc2ccc(N3CCCCC3)cc2C(=O)Nc2nc(-c3cccc(C(F)(F)F)c3)cs2)c1 [Example 3, N1-Methyl-N1-(2-morpholinoethyl)-N3-(4-(piperidin-1-yl)-2-((4-(3-(trifluoromethyl)phenyl)thiazol-2-yl)carbamoyl)phenyl)isophthalamide] | < 1 µM
Cc1ccc(-n2ccc(NC(=O)c3cc(Cl)ccc3NC(=O)c3cccc(CSCCC(=O)O)c3)n2)cc1C [Example 4, 3-((3-((4-Chloro-2-((1-(3,4-dimethylphenyl)-1H-pyrazol-3-yl)carbamoyl)phenyl)carbamoyl)benzyl)thio)propanoic acid] | 1 to 7.94 µM

More lines, now with the values ahead:

IC50 | SMILES
1 to 7.94 µM | Cc1ccc(-n2ccc(NC(=O)c3cc(N4CCCCC4)ccc3NC(=O)c3cccc(CSCCC(=O)O)c3)n2)cc1C [Example 5, 3-((3-((2-((1-(3,4-Dimethylphenyl)-1H-pyrazol-3-yl)carbamoyl)-4-(piperidin-1-yl)phenyl)carbamoyl)benzyl)thio)propanoic acid]
1 to 7.94 µM | O=C(O)CCSCc1cccc(C(=O)Nc2ccc(Cl)cc2C(=O)Nc2ccn(-c3cccc(C(F)(F)F)c3)n2)c1 [Example 6, 3-((3-((4-Chloro-2-((1-(3-(trifluoromethyl)phenyl)-1H-pyrazol-3-yl)carbamoyl)phenyl)carbamoyl)benzyl)thio)propanoic acid]
1 to 7.94 µM | CN(CCOCCOCCOCCC(=O)O)Cc1cccc(C(=O)Nc2ccc(N3CCCCC3)cc2C(=O)Nc2ccn(-c3cccc(C(F)(F)F)c3)n2)n1 [Example 8, 2-methyl-1-(6-((4-(piperidin-1-yl)-2-((1-(3-(trifluoromethyl)phenyl)-1H-pyrazol-3-yl)carbamoyl)phenyl)carbamoyl)pyridin-2-yl)-5,8,11-trioxa-2-azatetradecan-14-oic acid]
10 to 31.6 µM | CCN(CC)CCN(C)Cc1ccc(C(=O)Nc2ccc(N3CCCCC3)cc2C(=O)Nc2ccn(-c3cccc(C(F)(F)F)c3)n2)cc1 [Example 9, 2-(4-(((2-(diethylamino)ethyl)(methyl)amino)methyl)benzamido)-5-(piperidin-1-yl)-N-(1-(3-(trifluoromethyl)phenyl)-1H-pyrazol-3-yl)benzamide]
1 to 7.94 µM | O=C(NCCOCCO)c1cccc(C(=O)Nc2ccc(N3CCCCC3)cc2C(=O)Nc2cn(-c3cccc(C(F)(F)F)c3)cn2)c1 [Example 10, N1-(2-(2-Hydroxyethoxyl)ethyl)-N3-(4-(piperidin-1-yl)-2-((1-(3-(trifluoromethyl)phenyl)-1H-imidazol-4-yl)carbamoyl)phenyl)isophthalamide]
10 to 31.6 µM | CCN(CC)CCN(C)Cc1cccc(C(=O)Nc2ccc(N3CCCCC3)cc2C(=O)Nc2ccn(-c3cccc(C(F)(F)F)c3)n2)c1 [Example 12, 2-(3-(((2-(Diethylamino)ethyl)(methyl)amino)methyl)benzamido)-5-(piperidin-1-yl)-N-(1-(3-(trifluoromethyl)phenyl)-1H-pyrazol-3-yl)benzamide]
1 to 7.94 µM | O=C(NCCOCCO)c1cccc(C(=O)Nc2ccc(N3CCCCC3)cc2C(=O)Nc2ccn(-c3cccc(C(F)(F)F)c3)n2)c1 [Example 13, N1-(2-(2-Hydroxyethoxyl)ethyl)-N3-(4-(piperidin-1-yl)-2-((1-(3-(trifluoromethyl)phenyl)-1H-pyrazol-3-yl)carbamoyl)phenyl)isophthalamide]
1 to 7.94 µM | COCCNC(=O)CCN(C)Cc1cccc(C(=O)Nc2ccc(N3CCCCC3)cc2C(=O)Nc2ccn(-c3cccc(C(F)(F)F)c3)n2)c1 [Example 16, 2-(3-(((3-((2-methoxyethyl)amino)-3-oxopropyl)(methyl)amino)methyl)-benzamido)-5-(piperidin-1-yl)-N-(1-(3-(trifluoromethyl)phenyl)-1H-pyrazol-3-yl)-benzamide]
1 to 7.94 µM | O=C(O)c1ccc(SCc2cccc(C(=O)Nc3ccc(N4CCCCC4)cc3C(=O)Nc3ccn(-c4cccc(C(F)(F)F)c4)n3)c2)cc1 [Example 21, 4-((3-((4-(piperidin-1-yl)-2-((1-(3-(trifluoromethyl)phenyl)-1H-pyrazol-3-yl)carbamoyl)phenyl)carbamoyl)benzyl)thio)benzoic acid]
< 1 µM | O=C(O)Cc1cccc(SCc2cccc(C(=O)Nc3ccc(Cl)cc3C(=O)Nc3ccn(-c4cccc(C(F)(F)F)c4)n3)c2)c1 [Example 24, 2-(3-((3-((4-chloro-2-((1-(3-(trifluoromethyl)phenyl)-1H-pyrazol-3-yl)-carbamoyl)phenyl)carbamoyl)benzyl)thio)phenyl)acetic acid]

tested on: not given; assay: not given; details: human absorption data, from Ertl et al., J. Med. Chem. 2000; cited from earlier work

SMILES | % FA
OC[C@H]1O[C@@H](O[C@@H]2[C@@H](CO)OC(O)(CO)[C@H]2O)[C@H](O)[C@@H](O)[C@H]1O (mixture of isomers) [lactulose] | 0.6%
C=CCc1ccccc1OCC(O)CNC(C)C (centres unmarked) [alprenolol] | 96%
O=C(O)P(=O)(O)O [foscarnet] | 17%
OC[C@@H](O)[C@@H](O)[C@H](O)[C@H](O)CO [mannitol] | 26%
Cc1ccccc1N1C(=O)c2cc(S(N)(=O)=O)c(Cl)cc2NC1C (centres unmarked) [metolazone] | 64%
O=C(O)c1cc(/N=N/c2ccc(O)c(C(=O)O)c2)ccc1O [olsalazine] | 2.3%
C=CCOc1ccccc1OCC(O)CNC(C)C (centres unmarked) [oxprenolol] | 97%
CC(C)NCC(O)COc1cccc2[nH]ccc12 (centres unmarked) [pindolol] | 92%
CC(=O)Nc1ccc(OCC(O)CNC(C)C)cc1 (centres unmarked) [practolol] | 95%
OC[C@H]1O[C@H](OC[C@H]2O[C@H](O[C@]3(CO)O[C@H](CO)[C@@H](O)[C@@H]3O)[C@H](O)[C@@H](O)[C@@H]2O)[C@H](O)[C@@H](O)[C@H]1O [raffinose] | 0.3%
O=C(O)c1cc(/N=N/c2ccc(S(=O)(=O)Nc3ccccn3)cc2)ccc1O [sulfasalazine] | 12%
CCN1CCCC1CNC(=O)c1cc(S(N)(=O)=O)ccc1OC (centres unmarked) [sulpiride] | 36%
NC[C@H]1CC[C@H](C(=O)O)CC1 [tranexamic acid] | 55%
